Results on 45 compounds are retold here after patent US20230242544A1, “QUINAZOLINE COMPOUNDS, PREPARATION METHODS AND USES THEREOF” (INVENTISBIO CO., LTD., priority 2020, published 2023).

In general, Kd refers to the free concentration of one partner at which half of the binding sites on the other are occupied at equilibrium, for simple one-to-one binding.

Structures are written as SMILES. Where only a bound is given, the exact number is not on record here.

One assay addresses Ba/F3_KRAS^G12D cells (Homo sapiens, UniProt P01116, G12D, cells depend on it). Nature of the assay: Ba/F3 KRAS G12D cell proliferation assay (CellTiter-Glo). In kind it is cell-based. The note with it: treated for 3 days, cell-titer Glo, cell growth inhibition, read-out: BaF3_KRAS^G12D IC50. As for the experimental part:
Ba/F3_KRAS^G12D cells (KYinno, China) were generated by transducing Ba/F3 parental cells with the recombinant KRAS^G12D lentivirus and followed by 1 ug/mL of puromycin selection and IL3 depletion. […] Cells were seeded at a density of 5×10^3 per well into 96-well plate and incubated overnight. Serial diluted compounds were added to each well. Cells were treated with the compounds for 3 days, after which cell-titer Glo reagent (Promega #G7572) was used to assess cell proliferation. The luminescence signal was then collected on Tecan Spark plate reader. […] Cell growth inhibition of IC50 is calculated with the equation of Y=Bottom+(Top−Bottom)/(1+10^((Log IC50−X)*Hill Slope))
(ATP-based viability assays read luminescence as a measure of living cells.)

The target in assay [1] is recombinant human KRAS^G12D protein (Homo sapiens, UniProt P01116, G12D). Nature of the assay: Temperature-dependent Fluorescence (TdF) KRAS G12D protein binding assay. As to conditions: 6 μM KRAS^G12D protein, 10 μM compound, Sypro Orange; Kd calculated from the fluorescent shift. As for the experimental part:
The Temperature-dependent Fluorescence (TdF) assay was used to analyze binding affinity of compound to recombinant human KRAS^G12D protein. The TdF assay was conducted in the 96-well-based real-time fluorescence plate reader (ABI 7500 or Roche LightCycler 480). Fluorescent dye Sypro Orange (Sigma) was used to monitor the protein folding-unfolding transition. Protein-compound binding was gauged by the shift in the unfolding transition temperature (ΔTm) acquired with and without compound. Each reaction sample consists of 6 μM KRAS^G12D Protein, 10 μM compound, and Sypro Orange dye (in 1% DMSO) in 20 μL reaction buffer (25 mM HEPES pH 7.5, 150 mM NaCl, 10 mM MgCl2). […] Binding affinity (Kd value) was calculated based on the degree of fluorescent shift of the protein with and without compound.

Chain of Ba/F3_KRAS^G12D cells (P01116 whole entry G12D): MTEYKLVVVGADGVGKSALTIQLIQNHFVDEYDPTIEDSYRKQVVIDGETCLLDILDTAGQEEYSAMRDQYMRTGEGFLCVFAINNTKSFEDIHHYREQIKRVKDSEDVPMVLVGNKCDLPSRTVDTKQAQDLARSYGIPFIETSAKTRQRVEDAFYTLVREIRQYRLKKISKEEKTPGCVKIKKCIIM
Chain of recombinant human KRAS^G12D protein (P01116 1-188 isoform P01116-2 G12D): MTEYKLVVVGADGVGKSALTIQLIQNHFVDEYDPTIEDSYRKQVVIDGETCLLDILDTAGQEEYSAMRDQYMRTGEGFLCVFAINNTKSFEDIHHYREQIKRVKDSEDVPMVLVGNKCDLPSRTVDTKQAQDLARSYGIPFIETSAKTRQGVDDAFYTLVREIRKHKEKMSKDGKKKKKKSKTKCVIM

For `CNC1CCN(c2nc(OC[C@@H]3CCCN3C)nc3c(F)c(-c4cc(O)cc5cccc(Cl)c45)c(Cl)cc23)C1` (some centres unmarked) [Compound 16], the GI50 on Ba/F3_KRAS^G12D cells was in the range of 500 to 5000 nM. Further, the Kd in assay [1] was over 5000 nM.
`Oc1cc(-c2c(Cl)cc3c(N4CC5CCC(C4)N5)nc(OC[C@]45CCCN4C[C@@H](F)C5)nc3c2F)c2c(Cl)cccc2c1` (single isomer, unassigned) [Compound 101]: on Ba/F3_KRAS^G12D cells, the GI50 is under 500 nM. Further, the Kd in assay [1] was under 500 nM.
For `CN(C)CCCOc1nc(N2CC3CCC(C2)N3)c2cc(Cl)c(-c3c(N)cccc3F)c(F)c2n1` [Compound 9], the GI50 at Ba/F3_KRAS^G12D cells was over 5000 nM.
As to `Oc1cc(-c2c(Cl)cc3c(N4CC5CCC(C4)N5)nc(OC[C@@]45CCCN4C[C@H](F)C5)nc3c2F)c2c(Cl)cccc2c1` (single isomer, unassigned) [Compound 103], on Ba/F3_KRAS^G12D cells, the GI50 is under 500 nM. Besides, the Kd in assay [1] is under 500 nM.
As for `Nc1nc2c(-c3c(Cl)cc4c(N5CC6CCC(C5)N6)nc(OC[C@@]56CCCN5C[C@H](F)C6)nc4c3F)cc(C(F)(F)F)cc2s1` [Compound 132], on Ba/F3_KRAS^G12D cells, the GI50 lay within 500 to 5000 nM. Besides, in assay [1], the Kd is under 500 nM.
For the compound `CN1CCC2(CCN(c3nc(N4CC5CCC(C4)N5)c4cc(Cl)c(-c5cc(O)cc6ccccc56)c(F)c4n3)C2)C1` (centres unmarked) [Compound 44], the GI50 at Ba/F3_KRAS^G12D cells lay in the range of 500 to 5000 nM. In addition, the Kd in assay [1] was over 5000 nM.
The matching figures for `Nc1nc2c(-c3c(Cl)cc4c(N5CC6CCC(C5)N6)nc(OC[C@@]56CCCN5C[C@H](F)C6)nc4c3F)ccc(C(F)(F)F)c2s1` [Compound 143]: 500 to 5000 nM and under 500 nM.
In the case of `CN1CCC2(CC1)CCN(c1nc(N3CC4CCC(C3)N4)c3cc(Cl)c(-c4cc(O)cc5ccccc45)c(F)c3n1)C2` [Compound 41], the GI50 at Ba/F3_KRAS^G12D cells lay within 500 to 5000 nM. Moreover, in assay [1], the Kd is over 5000 nM.
For `CN1CCC[C@H]1COc1nc(N2CC3CCC(C2)N3)c2cc(Cl)c(-c3c(O)cccc3F)c(F)c2n1` [Compound 4], the GI50 on Ba/F3_KRAS^G12D cells is over 5000 nM. The Kd in assay [1] is 500 to 5000 nM.
The like results for `C[C@@H]1CN(c2nc(OC[C@@]34CCCN3C[C@H](F)C4)nc3c(F)c(-c4cc(O)cc5ccccc45)c(Cl)cc23)[C@@H](C)CN1` [Compound 128] were, in that order, 500 to 5000 nM and over 5000 nM.
The like results for `Cc1cccc2[nH]nc(-c3c(Cl)cc4c(N5CC6CCC(C5)N6)nc(OC[C@@H]5CCCN5C)nc4c3F)c12` [Compound 75] were, in that order, 500 to 5000 nM and over 5000 nM.
The like results for `COc1nc(N2CC3CCC(C2)N3)c2cc(Cl)c(-c3nc(N)cc(C)c3C(F)(F)F)c(F)c2n1` [Compound 144] were, in that order, 500 to 5000 nM and over 5000 nM.
As for `CN1CCN(c2nc(N3CC4CCC(C3)N4)c3cc(Cl)c(-c4cc(O)cc5ccccc45)c(F)c3n2)CC1` [Compound 83], at Ba/F3_KRAS^G12D cells, the GI50 lay in the range of 500 to 5000 nM. For the same compound, the Kd in assay [1] is over 5000 nM.
On to `CN1CCC[C@H]1COc1nc(N2CCNC(CC(N)=O)C2)c2cc(Cl)c(-c3cc(O)cc4ccccc34)c(F)c2n1` (some centres unmarked) [Compound 12], for which the GI50 at Ba/F3_KRAS^G12D cells is over 5000 nM. Also, in assay [1], the equilibrium dissociation constant (Kd) is over 5000 nM.
As for `CN1CCC[C@H]1COc1nc(N2CCNCC2)c2cc(Cl)c(-c3cc(O)cc4ccccc34)c(F)c2n1` [Compound 1], the GI50 on Ba/F3_KRAS^G12D cells is 500 to 5000 nM. In addition, in assay [1], the Kd was over 5000 nM.
Consider `N#Cc1cc2c(N3CC4CCC(C3)N4)nc(OC[C@@]34CCCN3C[C@H](F)C4)nc2c(F)c1-c1c(O)cccc1F` [Compound 90], for which the GI50 at Ba/F3_KRAS^G12D cells is over 5000 nM.
As to `N#Cc1cc2c(N3CC4CCC(C3)N4)nc(OC[C@@]34CCCN3C[C@H](F)C4)nc2c(F)c1-c1ccc(F)c2sc(N)nc12` [Compound 112], in assay [1], the Kd was under 500 nM.
Take `CCOc1cc2c(N3CC4CCC(C3)N4)nc(OC[C@@]34CCCN3C[C@H](F)C4)nc2c(F)c1-c1cc(O)cc2ccc(F)c(CC)c12` [Compound 158]: the GI50 at Ba/F3_KRAS^G12D cells was under 500 nM.
Regarding `CN1CCC[C@H]1COc1nc(NC2CNC2)c2cc(Cl)c(-c3cc(O)cc4cccc(Cl)c34)c(F)c2n1` [Compound 15], the dissociation constant (Kd) in assay [1] was over 5000 nM.
`CCc1c(F)ccc2cc(O)cc(-c3c(OC)cc4c(N5CC6CCC(C5)N6)nc(OC[C@@]56CCCN5C[C@H](F)C6)nc4c3F)c12` [Compound 164]: the GI50 at Ba/F3_KRAS^G12D cells was under 500 nM.
On the same count and under the same terms, next, `CN1CCC(Oc2nc(N3CC4CCC(C3)N4)c3cc(Cl)c(-c4cc(O)cc5ccccc45)c(F)c3n2)CC1` [Compound 38]: 500 to 5000 nM.
Take `C#Cc1c(F)ccc2cc(O)cc(-c3cc(OC)c4c(N5CC6CCC(C5)N6)nc(OC[C@@]56CCCN5C[C@H](F)C6)nc4c3F)c12` [Compound 167]: at Ba/F3_KRAS^G12D cells, the GI50 is under 500 nM.
In the case of `COc1nc(N2CC3CCC(C2)N3)c2cc(Cl)c(-c3ccc(F)c4sc(N)nc34)c(F)c2n1` [Compound 141], the Kd in assay [1] is 500 to 5000 nM.
As to `C#Cc1c(F)ccc2cc(O)cc(-c3c(OCC)cc4c(N5CC6CCC(C5)N6)nc(OC[C@@]56CCCN5C[C@H](F)C6)nc4c3F)c12` [Compound 160], the GI50 at Ba/F3_KRAS^G12D cells was under 500 nM.
With `Oc1cc(-c2c(Cl)cc3c(N4CC5CCC(C4)N5)nc(OCC45CCCN4CCC5)nc3c2F)c2c(Cl)c(F)ccc2c1` [Compound 71], the Kd in assay [1] is under 500 nM.
Same read-out and setting: the result for `Oc1cc(-c2c(Cl)cc3c(N4CC5CCC(C4)N5)nc(OC[C@@]45CCCN4C[C@H](F)C5)nc3c2F)c2ccccc2c1` [Compound 68] reads under 500 nM.
On to `CCOc1cc2c(N3CC4CCC(C3)N4)nc(OC[C@@]34CCCN3C[C@H](F)C4)nc2c(F)c1-c1cc(O)cc2cccc(CC)c12` [Compound 156], for which the GI50 at Ba/F3_KRAS^G12D cells was under 500 nM.
For the compound `CCOc1cc2c(N3CC4CCC(C3)N4)nc(OC[C@@]34CCCN3C[C@H](F)C4)nc2c(F)c1-c1cc(O)cc2cccc(CC)c12` [Compound 157], on Ba/F3_KRAS^G12D cells, the GI50 lay within 500 to 5000 nM.
Consider `CC(C)N1CCC(Oc2nc(N3CC4CCC(C3)N4)c3cc(Cl)c(-c4cc(O)cc5ccccc45)c(F)c3n2)C1` (centres unmarked) [Compound 84], for which the Kd in assay [1] is over 5000 nM.
In the case of `C#Cc1c(F)ccc2cc(O)cc(-c3cc(OC(C)C)c4c(N5CC6CCC(C5)N6)nc(OC[C@@]56CCCN5C[C@H](F)C6)nc4c3F)c12` [Compound 169], at Ba/F3_KRAS^G12D cells, the GI50 was under 500 nM.
On the same count and under the same terms, the result for `CN1CC(F)(F)CC1COc1nc(N2CC3CCC(C2)N3)c2cc(Cl)c(-c3cc(O)cc4ccccc34)c(F)c2n1` (centres unmarked) [Compound 34] reads 500 to 5000 nM.
The same measure, in the same setting: the result for `CCc1c(F)ccc2cc(O)cc(-c3c(Cl)cc4c(N5CC6CCC(C5)N6)nc(OC[C@@]56CCCN5C[C@H](F)C6)nc4c3F)c12` (single isomer, unassigned) [Compound 148] reads under 500 nM.
Consider `N#Cc1cc2c(N3CC4CCC(C3)N4)nc(OCC34CCCN3CCC4)nc2c(F)c1-c1cc(O)cc2ccccc12` [Compound 73], for which the Kd in assay [1] is under 500 nM.
As for `C#Cc1c(F)ccc2cc(O)cc(-c3ccc4c(N5CC6CCC(C5)N6)nc(OC[C@@]56CCCN5C[C@H](F)C6)nc4c3F)c12` [Compound 170], the GI50 at Ba/F3_KRAS^G12D cells is under 500 nM.
Take `Oc1cccc(F)c1-c1c(Cl)cc2c(N3CC4CCC(C3)N4)nc(OCC34CCCN3CCC4)nc2c1F` [Compound 63]: the Kd in assay [1] was 500 to 5000 nM.
In the case of `C#Cc1c(F)ccc2cc(O)cc(-c3c(OCC)cc4c(N5CC6CCC(C5)N6)nc(OC[C@@]56CCCN5C[C@H](F)C6)nc4c3F)c12` [Compound 161], the GI50 on Ba/F3_KRAS^G12D cells was under 500 nM.
On the same count and under the same terms, the result for `CCc1c(F)ccc2cc(O)cc(-c3c(C#N)cc4c(N5CC6CCC(C5)N6)nc(OC[C@@]56CCCN5C[C@H](F)C6)nc4c3F)c12` [Compound 150] reads under 500 nM.
For the compound `CCc1c(F)ccc2cc(O)cc(-c3c(Cl)cc4c(N5CC6CCC(C5)N6)nc(OC[C@@]56CCCN5C[C@H](F)C6)nc4c3F)c12` (single isomer, unassigned) [Compound 147], on Ba/F3_KRAS^G12D cells, the GI50 was under 500 nM.
In the case of `C#Cc1c(F)ccc2cc(O)cc(-c3c(F)cc4c(N5CC6CCC(C5)N6)nc(OC[C@@]56CCCN5C[C@H](F)C6)nc4c3F)c12` (single isomer, unassigned) [Compound 165], on Ba/F3_KRAS^G12D cells, the GI50 is under 500 nM.
Same read-out and setting: next, `CCc1c(F)ccc2cc(O)cc(-c3c(C#N)cc4c(N5CC6CCC(C5)N6)nc(OC[C@@]56CCCN5C[C@H](F)C6)nc4c3F)c12` [Compound 149]: under 500 nM; `CCOc1cc2c(N3CC4CCC(C3)N4)nc(OC[C@@]34CCCN3C[C@H](F)C4)nc2c(F)c1-c1cc(O)cc2ccc(F)c(CC)c12` [Compound 159]: 500 to 5000 nM.
On the same count and under the same terms, the result for `CN1CCO[C@@H](COc2nc(N3CC4CCC(C3)N4)c3cc(Cl)c(-c4cc(O)cc5ccccc45)c(F)c3n2)C1` [Compound 37] reads 500 to 5000 nM.
With `Cc1cc(N)nc(-c2c(SC(F)(F)F)cc3c(N4CCNC[C@@H]4C)nc(OC[C@@H]4CCCN4C)nc3c2F)c1C(F)(F)F` [Compound 136], the Kd in assay [1] was over 5000 nM.
For the compound `C#Cc1c(F)ccc2cc(O)cc(-c3c(Cl)cc4c(N5CC6CCC(C5)N6)nc(OC[C@@]56CCCN5C[C@H](F)C6)nc4c3F)c12` (single isomer, unassigned) [Compound 155], the GI50 on Ba/F3_KRAS^G12D cells is under 500 nM.
Same read-out and setting: the result for `C#Cc1c(F)ccc2cc(O)cc(-c3c(OC)cc4c(N5CC6CCC(C5)N6)nc(OC[C@@]56CCCN5C[C@H](F)C6)nc4c3F)c12` [Compound 162] reads under 500 nM.
